Literature values, collected in patent publication US20100227030A1, “METHOD FOR THE CONSERVATION OF A PLANT MATERIAL” (priority 2007, published 2010).

Details: at 20° C

Maximal solubility: 68.9 g/100 g water
SMILES: OC[C@H]1O[C@H](O[C@H]2O[C@H](CO)[C@@H](O)[C@H](O)[C@H]2O)[C@H](O)[C@@H](O)[C@@H]1O [trehalose]
